± gives the expanded uncertainty stated by the source.
Assay: mn = molality of the nth substance listed, in mol/kg
Settings: 101 kPa, Liquid; for speed of sound: Pulse-echo method

OC[C@H]1O[C@H](OC[C@H]2O[C@H](O[C@]3(CO)O[C@H](CO)[C@@H](O)[C@@H]3O)[C@H](O)[C@@H](O)[C@@H]2O)[C@H](O)[C@@H](O)[C@H]1O [D-raffinose] + O
Settings	mass density, 293.15 K [kg/m3]	mass density, 298.15 K [kg/m3]	mass density, 303.15 K [kg/m3]	mass density, 308.15 K [kg/m3]	mass density, 313.15 K [kg/m3]	speed of sound, 293.15 K [m/s]	speed of sound, 298.15 K [m/s]	speed of sound, 303.15 K [m/s]	speed of sound, 308.15 K [m/s]	speed of sound, 313.15 K [m/s]
m1 = 0.05	1007.77 ± 1.8	1006.5 ± 1.8	1004.91 ± 1.8	1003.05 ± 1.7	1001.02 ± 1.7	1491.8 ± 3.3	1505.7 ± 3.4	1517.8 ± 3.4	1528.3 ± 3.3	1537.3 ± 3.2
m1 = 0.055	1008.68 ± 1.8	1007.4 ± 1.8	1005.81 ± 1.8	1003.92 ± 1.7	1001.99 ± 1.7	1492.6 ± 3.3	1506.5 ± 3.4	1518.6 ± 3.4	1529.1 ± 3.3	1538.1 ± 3.2
m1 = 0.06	1009.59 ± 1.8	1008.29 ± 1.8	1006.72 ± 1.8	1004.79 ± 1.7	1002.85 ± 1.7	1493.5 ± 3.3	1507.3 ± 3.3	1519.4 ± 3.2	1529.8 ± 3.2	1538.8 ± 3.2
m1 = 0.065	1010.49 ± 1.8	1009.18 ± 1.8	1007.61 ± 1.8	1005.69 ± 1.7	1003.72 ± 1.7	1494.3 ± 3.3	1508.2 ± 3.3	1520.2 ± 3.3	1530.6 ± 3.2	1539.6 ± 3.2
m1 = 0.07	1011.48 ± 1.8	1010.16 ± 1.8	1008.56 ± 1.8	1006.61 ± 1.8	1004.62 ± 1.7	1495.1 ± 3.3	1509 ± 3.3	1521 ± 3.3	1531.4 ± 3.2	1540.4 ± 3.2
m1 = 0.075	1012.36 ± 1.8	1011.1 ± 1.8	1009.46 ± 1.8	1007.55 ± 1.8	1005.58 ± 1.7	1496 ± 3.4	1509.8 ± 3.3	1521.8 ± 3.3	1532.1 ± 3.2	1541.1 ± 3.2
m1 = 0.08	1013.3 ± 1.8	1011.98 ± 1.8	1010.34 ± 1.8	1008.42 ± 1.8	1006.46 ± 1.8	1496.8 ± 3.4	1510.6 ± 3.4	1522.6 ± 3.3	1532.9 ± 3.2	1541.9 ± 3.2
m1 = 0.085	1014.21 ± 1.8	1012.93 ± 1.8	1011.23 ± 1.8	1009.29 ± 1.8	1007.35 ± 1.8	1497.7 ± 3.4	1511.4 ± 3.4	1523.4 ± 3.3	1533.7 ± 3.3	1542.7 ± 3.2
m1 = 0.09	1015.18 ± 1.8	1013.88 ± 1.8	1012.18 ± 1.8	1010.25 ± 1.8	1008.33 ± 1.8	1498.5 ± 3.5	1512.2 ± 3.4	1524.2 ± 3.4	1534.4 ± 3.3	1543.4 ± 3.2
m1 = 0.1	1016.99 ± 1.8	1015.7 ± 1.8	1014.08 ± 1.8	1011.99 ± 1.8	1010.23 ± 1.8	1500.1 ± 3.5	1513.9 ± 3.4	1525.8 ± 3.3	1536 ± 3.3	1544.9 ± 3.2

O=C[C@H](O)[C@H](O)[C@H](O)CO [D-ribose] + O
Settings	mass density, 293.15 K [kg/m3]	mass density, 298.15 K [kg/m3]	mass density, 303.15 K [kg/m3]	mass density, 308.15 K [kg/m3]	mass density, 313.15 K [kg/m3]	speed of sound, 293.15 K [m/s]	speed of sound, 298.15 K [m/s]	speed of sound, 303.15 K [m/s]	speed of sound, 308.15 K [m/s]	speed of sound, 313.15 K [m/s]
m1 = 0.05	1001.07 ± 0.7	999.887 ± 0.72	998.463 ± 0.72	996.819 ± 0.73	994.955 ± 0.71	1485.2 ± 2.4	1499.2 ± 2.5	1511.3 ± 2.4	1521.9 ± 2.4	1530.9 ± 2.3
m1 = 0.055	1001.36 ± 0.7	1000.17 ± 0.72	998.749 ± 0.72	997.103 ± 0.73	995.237 ± 0.71	1485.4 ± 2.4	1499.4 ± 2.5	1511.5 ± 2.5	1522 ± 2.4	1531 ± 2.3
m1 = 0.06	1001.65 ± 0.7	1000.47 ± 0.69	999.035 ± 0.69	997.383 ± 0.7	995.517 ± 0.71	1485.6 ± 2.4	1499.5 ± 2.4	1511.6 ± 2.4	1522.2 ± 2.4	1531.2 ± 2.3
m1 = 0.065	1001.94 ± 0.7	1000.75 ± 0.7	999.317 ± 0.69	997.667 ± 0.7	995.796 ± 0.71	1485.8 ± 2.4	1499.7 ± 2.4	1511.8 ± 2.4	1522.3 ± 2.4	1531.3 ± 2.3
m1 = 0.07	1002.23 ± 0.7	1001.04 ± 0.7	999.606 ± 0.69	997.954 ± 0.7	996.076 ± 0.7	1485.9 ± 2.4	1499.8 ± 2.4	1511.9 ± 2.4	1522.5 ± 2.4	1531.4 ± 2.4
m1 = 0.075	1002.52 ± 0.7	1001.33 ± 0.7	999.887 ± 0.69	998.237 ± 0.7	996.357 ± 0.7	1486.1 ± 2.4	1500 ± 2.5	1512 ± 2.4	1522.6 ± 2.4	1531.6 ± 2.4
m1 = 0.08	1002.82 ± 0.71	1001.62 ± 0.7	1000.17 ± 0.69	998.519 ± 0.69	996.637 ± 0.7	1486.2 ± 2.4	1500.1 ± 2.5	1512.2 ± 2.4	1522.7 ± 2.4	1531.7 ± 2.4
m1 = 0.085	1003.11 ± 0.71	1001.91 ± 0.7	1000.47 ± 0.69	998.806 ± 0.69	996.917 ± 0.7	1486.4 ± 2.4	1500.2 ± 2.5	1512.2 ± 2.5	1522.8 ± 2.4	1531.8 ± 2.4
m1 = 0.09	1003.4 ± 0.71	1002.21 ± 0.7	1000.75 ± 0.69	999.089 ± 0.69	997.196 ± 0.7	1486.5 ± 2.5	1500.3 ± 2.5	1512.4 ± 2.5	1523 ± 2.5	1532 ± 2.4
m1 = 0.1	1003.98 ± 0.71	1002.79 ± 0.68	1001.33 ± 0.67	999.652 ± 0.67	997.754 ± 0.69	1486.8 ± 2.5	1500.6 ± 2.5	1512.6 ± 2.5	1523.2 ± 2.5	1532.2 ± 2.4

CC(C)C[C@H](N)C(=O)O [L-leucine] + O
Settings	mass density, 293.15 K [kg/m3]	mass density, 298.15 K [kg/m3]	mass density, 303.15 K [kg/m3]	mass density, 308.15 K [kg/m3]	mass density, 313.15 K [kg/m3]	speed of sound, 293.15 K [m/s]	speed of sound, 298.15 K [m/s]	speed of sound, 303.15 K [m/s]	speed of sound, 308.15 K [m/s]	speed of sound, 313.15 K [m/s]
m1 = 0.025	998.94 ± 0.69	997.765 ± 0.7	996.352 ± 0.7	994.719 ± 0.7	992.893 ± 0.7	1486.2 ± 2.4	1500.2 ± 2.4	1512.3 ± 2.3	1522.8 ± 2.3	1531.7 ± 2.3
m1 = 0.05	999.543 ± 0.68	998.36 ± 0.69	996.938 ± 0.7	995.302 ± 0.7	993.464 ± 0.71	1489.2 ± 2.4	1502.9 ± 2.4	1515 ± 2.3	1525.4 ± 2.3	1534.2 ± 2.3
m1 = 0.1	1000.6 ± 0.68	999.369 ± 0.68	997.956 ± 0.69	996.293 ± 0.7	994.341 ± 0.7	1495.2 ± 2.4	1508.8 ± 2.3	1520.6 ± 2.3	1530.8 ± 2.3	1539.4 ± 2.3

From the NIST ThermoML archive (doi:10.1021/je400977r)
